Test results taken from ChEMBL document CHEMBL4321845, “Discovery and Characterization of Potent Pan-Genotypic HCV NS5A Inhibitors Containing Novel Tricyclic Central Core Leading to Clinical Candidate” (J Med Chem, 2019).
Each block holds one compound with its values, some of them ahead of it.

Legend:
[1] = Cmax in beagle dog at 10 mg/kg, po measured up to 24 hrs by LC-MS/MS analysis; assay type: ADME, organism-based, Canis lupus familiaris; parameters: dose 10 mg/kg, route oral; settings: in vivo
[2] = target: CYP3A4 (Homo sapiens, UniProt P08684); experiment: Inhibition of CYP3A4 in pooled human liver microsomes at 10 uM pre-incubated for 5 mins before NADPH addition and measured after 10 mins by UPLC-MS/MS analysis relative to control; assay type: ADME
Chain of CYP3A4 (P08684 whole entry): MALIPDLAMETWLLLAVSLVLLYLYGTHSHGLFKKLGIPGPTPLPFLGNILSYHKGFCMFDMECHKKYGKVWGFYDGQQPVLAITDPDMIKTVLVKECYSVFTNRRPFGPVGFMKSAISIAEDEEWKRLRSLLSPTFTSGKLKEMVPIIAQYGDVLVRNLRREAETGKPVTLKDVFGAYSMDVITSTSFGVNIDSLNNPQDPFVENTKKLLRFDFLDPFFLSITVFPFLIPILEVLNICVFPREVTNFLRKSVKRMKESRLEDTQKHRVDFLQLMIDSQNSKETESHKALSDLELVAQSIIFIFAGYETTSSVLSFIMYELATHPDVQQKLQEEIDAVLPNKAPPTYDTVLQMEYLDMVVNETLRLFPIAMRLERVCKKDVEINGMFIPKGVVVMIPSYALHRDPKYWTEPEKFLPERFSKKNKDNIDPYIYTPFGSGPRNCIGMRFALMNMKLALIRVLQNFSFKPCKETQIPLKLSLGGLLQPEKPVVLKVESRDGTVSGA

[3] = AUC (last) in rat at 100 mg/kg, po measured up to 24 hrs by LC-MS/MS analysis; assay type: ADME, organism-based; parameters: dose 100 mg/kg, time 0 - last, route oral; settings: in vivo
[4] = Cytotoxicity in human HEK293 cells assessed as inhibition of cell growth at 3 uM incubated for 72 hrs by CCK8 assay relative to control; assay type: cell-based; settings: read-out: GI
[5] = Clearance in beagle dog at 1 mg/kg, iv measured up to 24 hrs by LC-MS/MS analysis; assay type: ADME, organism-based, Canis lupus familiaris; settings: in vivo
[6] = Cytotoxicity in human HepG2 cells assessed as inhibition of cell growth at 3 uM incubated for 72 hrs by CCK8 assay relative to control; assay type: cell-based; settings: read-out: GI
[7] = Cytotoxicity in human HuH7 cells assessed as inhibition of cell growth at 3 uM incubated for 72 hrs by CCK8 assay relative to control; assay type: cell-based, Huh-7; settings: read-out: GI
[8] = AUC (last) in beagle dog at 30 mg/kg, po measured up to 24 hrs by LC-MS/MS analysis; assay type: ADME, organism-based, Canis lupus familiaris; parameters: dose 30 mg/kg, route oral, time 0 - last; settings: in vivo
[9] = AUC(last) in rat at 1 mg/kg, iv measured up to 24 hrs by LC-MS/MS analysis; assay type: ADME, organism-based; parameters: dose 1 mg/kg, route intravenous, time 0 - last; settings: in vivo
[10] = Volume of distribution at steady state in rat at 1 mg/kg, iv measured up to 24 hrs by LC-MS/MS analysis; assay type: ADME, organism-based; settings: in vivo, read-out: Vdss
[11] = Clearance in rat at 1 mg/kg, iv measured up to 24 hrs by LC-MS/MS analysis; assay type: ADME, organism-based; settings: in vivo
[12] = Protein binding in human plasma; assay type: ADME, cell-free; settings: read-out: PPB
[13] = Cmax in beagle dog at 100 mg/kg, po measured up to 24 hrs by LC-MS/MS analysis; assay type: ADME, organism-based, Canis lupus familiaris; parameters: dose 100 mg/kg, route oral; settings: in vivo
[14] = Half life in beagle dog at 1 mg/kg, iv measured up to 24 hrs by LC-MS/MS analysis; assay type: ADME, organism-based, Canis lupus familiaris; settings: in vivo
[15] = Cytotoxicity in human HEK293 cells assessed as inhibition of cell growth at 10 uM incubated for 72 hrs by CCK8 assay relative to control; assay type: cell-based; settings: read-out: GI
[16] = Oral bioavailability in beagle dog at 10 mg/kg measured up to 24 hrs by LC-MS/MS analysis; assay type: ADME, organism-based, Canis lupus familiaris; settings: in vivo
[17] = Cytotoxicity in human HuH7 cells assessed as inhibition of cell growth at 10 uM incubated for 72 hrs by CCK8 assay relative to control; assay type: cell-based, Huh-7; settings: read-out: GI
[18] = Drug metabolism in human liver microsomes assessed as metabolic rate at 1 uM preincubated for 5 mins before NADPH addition and measured up to 30 mins by LC-MS/MS analysis; assay type: ADME, Microsome; settings: 0.5 h
[19] = Oral bioavailability in rat at 10 mg/kg measured up to 24 hrs by LC-MS/MS analysis; assay type: ADME, organism-based; settings: in vivo
[20] = AUC (last) in rat at 10 mg/kg, po measured up to 24 hrs by LC-MS/MS analysis; assay type: ADME, organism-based; parameters: dose 10 mg/kg, time 0 - last, route oral; settings: in vivo
[21] = AUC(last) in beagle dog at 1 mg/kg, iv measured up to 24 hrs by LC-MS/MS analysis; assay type: ADME, organism-based, Canis lupus familiaris; parameters: dose 1 mg/kg, route intravenous, time 0 - last; settings: in vivo
[22] = Ratio of dug level in liver to plasma of Wistar rat at 10 mg/kg, po measured at 4 hrs by LC-MS/MS analysis; assay type: ADME, organism-based
[23] = Drug level in plasma of Wistar rat at 10 mg/kg, po measured at 4 hrs by LC-MS/MS analysis; assay type: ADME, organism-based
[24] = Cmax in rat at 10 mg/kg, po measured up to 24 hrs by LC-MS/MS analysis; assay type: ADME, organism-based; parameters: dose 10 mg/kg, route oral; settings: in vivo
[25] = target: CYP2D6 (Homo sapiens, UniProt P10635); experiment: Inhibition of CYP2D6 in pooled human liver microsomes at 10 uM pre-incubated for 5 mins before NADPH addition and measured after 10 mins by UPLC-MS/MS analysis relative to control; assay type: ADME
Chain of CYP2D6 (P10635 whole entry): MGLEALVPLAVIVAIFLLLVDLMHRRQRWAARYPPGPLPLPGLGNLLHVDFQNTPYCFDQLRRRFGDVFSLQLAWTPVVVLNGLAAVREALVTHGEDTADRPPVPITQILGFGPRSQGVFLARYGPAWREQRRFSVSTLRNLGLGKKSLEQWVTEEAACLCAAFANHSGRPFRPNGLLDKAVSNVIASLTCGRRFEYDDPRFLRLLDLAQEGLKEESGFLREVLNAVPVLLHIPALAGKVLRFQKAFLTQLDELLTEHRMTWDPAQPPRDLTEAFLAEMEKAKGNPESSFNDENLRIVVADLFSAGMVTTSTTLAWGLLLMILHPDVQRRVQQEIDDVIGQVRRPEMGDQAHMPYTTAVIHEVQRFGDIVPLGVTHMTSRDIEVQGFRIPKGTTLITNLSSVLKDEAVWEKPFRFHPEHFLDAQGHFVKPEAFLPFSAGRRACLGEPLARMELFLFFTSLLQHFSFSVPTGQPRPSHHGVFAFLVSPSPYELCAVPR

[26] = Tmax in beagle dog at 10 mg/kg, po measured up to 24 hrs by LC-MS/MS analysis; assay type: ADME, organism-based, Canis lupus familiaris; settings: in vivo
[27] = Cytotoxicity in human HepG2 cells assessed as inhibition of cell growth at 10 uM incubated for 72 hrs by CCK8 assay relative to control; assay type: cell-based; settings: read-out: GI
[28] = Tmax in beagle dog at 30 mg/kg, po measured up to 24 hrs by LC-MS/MS analysis; assay type: ADME, organism-based, Canis lupus familiaris; settings: in vivo
[29] = Protein binding in rat plasma; assay type: ADME, cell-free; settings: read-out: PPB
[30] = AUC (last) in beagle dog at 10 mg/kg, po measured up to 24 hrs by LC-MS/MS analysis; assay type: ADME, organism-based, Canis lupus familiaris; parameters: dose 10 mg/kg, time 0 - last, route oral; settings: in vivo
[31] = Tmax in rat at 30 mg/kg, po measured up to 24 hrs by LC-MS/MS analysis; assay type: ADME, organism-based; settings: in vivo
[32] = Cmax in rat at 100 mg/kg, po measured up to 24 hrs by LC-MS/MS analysis; assay type: ADME, organism-based; parameters: dose 100 mg/kg, route oral; settings: in vivo
[33] = AUC (last) in beagle dog at 100 mg/kg, po measured up to 24 hrs by LC-MS/MS analysis; assay type: ADME, organism-based, Canis lupus familiaris; parameters: dose 100 mg/kg, route oral, time 0 - last; settings: in vivo
[34] = Cmax in rat at 30 mg/kg, po measured up to 24 hrs by LC-MS/MS analysis; assay type: ADME, organism-based; parameters: dose 30 mg/kg, route oral; settings: in vivo
[35] = Tmax in rat at 10 mg/kg, po measured up to 24 hrs by LC-MS/MS analysis; assay type: ADME, organism-based; settings: in vivo
[36] = Tmax in beagle dog at 100 mg/kg, po measured up to 24 hrs by LC-MS/MS analysis; assay type: ADME, organism-based, Canis lupus familiaris; settings: in vivo
[37] = Drug metabolism in rat liver microsomes assessed as metabolic rate at 1 uM preincubated for 5 mins before NADPH addition and measured up to 30 mins by LC-MS/MS analysis; assay type: ADME, Microsome; settings: 0.5 h
[38] = Half life in rat at 1 mg/kg, iv measured up to 24 hrs by LC-MS/MS analysis; assay type: ADME, organism-based; settings: in vivo
[39] = target: CYP2C9 (Homo sapiens, UniProt P11712); experiment: Inhibition of CYP2C9 in pooled human liver microsomes at 10 uM pre-incubated for 5 mins before NADPH addition and measured after 10 mins by UPLC-MS/MS analysis relative to control; assay type: ADME
Chain of CYP2C9 (P11712 whole entry): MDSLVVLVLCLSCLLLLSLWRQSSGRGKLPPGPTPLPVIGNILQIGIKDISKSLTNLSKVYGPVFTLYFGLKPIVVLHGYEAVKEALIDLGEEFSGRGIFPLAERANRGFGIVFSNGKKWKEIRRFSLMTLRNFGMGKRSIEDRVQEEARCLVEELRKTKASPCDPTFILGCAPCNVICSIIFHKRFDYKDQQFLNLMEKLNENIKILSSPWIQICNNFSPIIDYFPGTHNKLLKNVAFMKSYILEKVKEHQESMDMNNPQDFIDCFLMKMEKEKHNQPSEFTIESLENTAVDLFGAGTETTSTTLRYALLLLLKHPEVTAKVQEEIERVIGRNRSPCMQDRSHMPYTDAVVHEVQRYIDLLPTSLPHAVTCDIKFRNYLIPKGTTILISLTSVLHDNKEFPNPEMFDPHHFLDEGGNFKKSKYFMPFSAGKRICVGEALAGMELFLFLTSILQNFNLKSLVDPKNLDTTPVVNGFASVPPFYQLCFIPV

[40] = Drug level in liver of Wistar rat at 10 mg/kg, po measured at 4 hrs by LC-MS/MS analysis; assay type: ADME, organism-based; settings: read-out: Drug uptake
[41] = Cmax in beagle dog at 30 mg/kg, po measured up to 24 hrs by LC-MS/MS analysis; assay type: ADME, organism-based, Canis lupus familiaris; parameters: dose 30 mg/kg, route oral; settings: in vivo
[42] = Volume of distribution at steady state in beagle dog at 1 mg/kg, iv measured up to 24 hrs by LC-MS/MS analysis; assay type: ADME, organism-based, Canis lupus familiaris; settings: in vivo, read-out: Vdss
[43] = AUC (last) in rat at 30 mg/kg, po measured up to 24 hrs by LC-MS/MS analysis; assay type: ADME, organism-based; parameters: dose 30 mg/kg, time 0 - last, route oral; settings: in vivo
[44] = Tmax in rat at 100 mg/kg, po measured up to 24 hrs by LC-MS/MS analysis; assay type: ADME, organism-based; settings: in vivo
[45] = Drug level in liver of Wistar rat at 10 mg/kg, po measured up to 8 hrs by LC-MS/MS analysis; assay type: ADME, organism-based; settings: in vivo

- Cmax [1]: 5 µM
- inhibition at 10 min, 10 µM [2]: 12%
- AUC(0-t) at 24 h [3]: 127 µM·h
- clearance [5]: 6 mL/min/kg
- AUC(0-t) at 24 h [8]: 86 µM·h
- AUC(0-t) at 24 h [9]: 2 µM·h
- Vd [10]: 2 L/kg
- clearance [11]: 11 mL/min/kg
- fraction unbound [12]: < 0.01
- Cmax [13]: 17 µM
- half-life [14]: 4 h
- bioavailability [16]: 100%
- Drug metabolism [18]: 0.04 nmol/min/mg
- bioavailability [19]: 30%
- AUC(0-t) at 24 h [20]: 4 to 6 µM·h
- AUC(0-t) at 24 h [21]: 3 µM·h
- Kp at 4 h [22]: 14.5
- concentration at 4 h [23]: 0.6 µM
- Cmax [24]: 0.9 to 1 µM
- inhibition at 10 min, 10 µM [25]: 12%
- Tmax [26]: 1 h
- Tmax [28]: 4 h
- fraction unbound [29]: < 0.01
- AUC(0-t) at 24 h [30]: 49 µM·h
- Tmax [31]: 4 to 6 h
- Cmax [32]: 15 µM
- AUC(0-t) at 24 h [33]: 179 µM·h
- Cmax [34]: 3 µM
- Tmax [35]: 4 to 6 h
- Tmax [36]: 3 h
- Drug metabolism [37]: 0.01 nmol/min/mg
- half-life [38]: 2 h
- inhibition at 10 min, 10 µM [39]: 42%
- concentration at 4 h [40]: 8.5 µM
- Cmax [41]: 10 µM
- Vd [42]: 2 L/kg
- AUC(0-t) at 24 h [43]: 24 µM·h
- Tmax [44]: 4 to 6 h
- Drug uptake [45]: Active
SMILES: COC(=O)N[C@H](C(=O)N1CCC[C@H]1c1ncc(-c2ccc3c(ccc4cc(-c5cnc([C@@H]6CCCN6C(=O)[C@@H](NC(=O)OC)C(C)C)[nH]5)sc43)c2)[nH]1)C(C)C
- inhibition at 72 h, 3 µM [4]: 0%
- inhibition at 72 h, 3 µM [6]: 3%
- inhibition at 72 h, 3 µM [7]: 0%
- inhibition at 72 h, 10 µM [15]: 36%
- inhibition at 72 h, 10 µM [17]: 14%
- inhibition at 72 h, 10 µM [27]: 22%

- inhibition at 10 min, 10 µM [2]: 0%
- AUC(0-t) at 24 h [9]: 1.1 µM·h
- Vd [10]: 2.3 L/kg
- clearance [11]: 17 mL/min/kg
- Drug metabolism [18]: 0.02 nmol/min/mg
- bioavailability [19]: 47%
- AUC(0-t) at 24 h [20]: 5.2 µM·h
- Kp at 4 h [22]: 13
- concentration at 4 h [23]: 0.62 µM
- Cmax [24]: 1.9 µM
- inhibition at 10 min, 10 µM [25]: 17%
- Drug metabolism [37]: 0.01 nmol/min/mg
- half-life [38]: 2.1 h
- inhibition at 10 min, 10 µM [39]: 0%
- concentration at 4 h [40]: 7.6 µM
- Drug uptake [45]: Active
SMILES: COC(=O)N[C@H](C(=O)N1CCC[C@H]1c1ncc(-c2ccc3c(c2)OCC(C)(C)COc2cc(-c4cnc([C@@H]5CCCN5C(=O)[C@@H](NC(=O)OC)C(C)C)[nH]4)ccc2-3)[nH]1)C(C)C
- inhibition at 72 h, 3 µM [4]: 17%
- inhibition at 72 h, 3 µM [6]: 8%
- inhibition at 72 h, 3 µM [7]: 4%
- inhibition at 72 h, 10 µM [15]: 33%
- inhibition at 72 h, 10 µM [27]: 35%
